Test results as given in patent US6699861B1, “Anti-quinazoline compounds” (Cancer Research Technology Limited, priority 1999, dated 2004).
“And” between values parts separate entries of the source, which are not always exact repeats. Equal entries are not always repeated. Where two headings read alike, the source gives them in different places.

Key:
W1L2:R865 cell line = test: Growth inhibition of W1L2:R865 cells (acquired resistance to CB 30865); format: cell-based, human
Method: A cell line was raised with acquired resistance to CB 30865, denoted W1L2:R865, by stepwise selection over ˜9 months.
The generated W1L2:R865 cell line was routinely cultured in 0.03 μm CB 30865 under the same conditions as W1L2 cells, with cells being grown in the absence of CB 30865 for ˜2 weeks before an experiment.
The activity of compounds against W1L2:R865 cells was determined within parallel experiments by 72 h growth inhibition assay (Coulter counts). CB 30865 was included in every experiment as an internal control.

W1L2 cells = test: Growth inhibition of W1L2 in presence of folate metabolites (dThd/HX); format: cell-based, human; conditions: in the presence of 10 μM thymidine (dThd) and 50 μM hypoxantine (HX), read-out: Inhibition of Cell Growth IC50, W1L2 + dThd/HX (C)
Method: Growth inhibition assays as described above were performed in W1L2 cells where compounds were incubated in the presence of 10 μM thymidine (dThd) and 50 μM hypoxantine (HX) (purchased from Sigma Chemical Co.).

W1L2:C1 cells = test: Growth inhibition of W1L2:C1 cells (elevated TS); format: cell-based, human; conditions: read-out: Inhibition of Cell Growth IC50, W1L2:C1 (B)
Method: (§1) W1L2 human lymphoblastoid, W1L2:C1 (elevated TS; O'Connor et al, Cancer Res, 52, 1137-1143 (1992)) and L1210 mouse leukaemia cells were cultured in suspension and A2780, PXN94, 41M, HX62, SKOV3 (human ovarian carcinoma), MCF-7 (human breast carcinoma), HT29 and SW480 (human colon carcinoma) cell lines were grown as monolayers as described in Jackman et al, Cancer Res, 50, 5212-5218 (1990) and Jackman et al, Br. J. Cancer, 71, 914-924 (1995).
(§2) Growth inhibition studies with suspension cells were performed as described in Jackman et al, Cancer Res, 50, 5212-5218 (1990). Activity against the adherent cell lines was assessed by MTT assay (Twentyman et al, Br. J. Cancer, 56, 279-285 (1987)) where cells were seeded in 96-well plates at 1000-3000 cells per well, incubated overnight and then exposed to the appropriate drug concentrations for 96-120 h.

[1] = test system: W1L2 human lymphoblastoid cells; test: Growth inhibition of W1L2 cells; format: cell-based
[2] = background statement on the known compound; cited from earlier work
HT29 cells = test: In vitro sensitivity of HT29 cells compared with CH1 cells; format: cell-based, human
Method: as §1, §2

[3] = test system: CH1 ovarian carcinoma cell line; test: Hollow fibre assay, CH1 cells; format: in vivo, nude mice; conditions: for O.D. as % control: harvested day 5
Method: (§3) As adopted by the NCI, the hollow fibre assay (Hollingshead et al. 1995, Life Sciences, 57: 13 1-141) was used as an initial means of assessing the in vivo antitumour activity of CB 300919.
(§4) The hollow fibre assay was performed using the CH1 ovarian carcinoma cell line and the HT29 colon line.
(§5) Results are expressed as a % Treated/Control (T/C).

[4] = molecular target: mouse thymidylate synthase (TS) (Mus musculus, UniProt P07607); test: Inhibition of L1210 thymidylate synthase (TS)
Sequence of mouse thymidylate synthase (TS) (P07607 whole entry): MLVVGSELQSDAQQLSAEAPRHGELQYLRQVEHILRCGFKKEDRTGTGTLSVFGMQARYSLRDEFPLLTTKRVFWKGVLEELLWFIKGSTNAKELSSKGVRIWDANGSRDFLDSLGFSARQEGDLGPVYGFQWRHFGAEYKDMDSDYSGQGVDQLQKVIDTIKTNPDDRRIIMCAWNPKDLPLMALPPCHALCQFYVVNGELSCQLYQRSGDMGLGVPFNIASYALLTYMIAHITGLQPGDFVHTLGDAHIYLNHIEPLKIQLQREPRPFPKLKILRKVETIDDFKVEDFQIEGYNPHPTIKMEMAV

MTD in DBA2 mice = conditions: mouse, in vivo
Method: MTD in DBA2 mice ˜1.5 mg/kg/d×3 days.

[5] = Tolerability (weight loss, deaths, MTD) in nude mice
Method: One day later (day 1), CB 300919 was administered by ip injection, daily for 3 days (days 1-3).
Mice injected with CB 300919 i.p. on days 1-3.

HT29 colon line = test: Hollow fibre assay, HT29 cells; format: in vivo, nude mice; conditions: for O.D. as % control: harvested day 5
Method: as §3, §4, §5

[6] = Homo sapiens, Lymphoblastoid cell, W1L2 suspension cells, read-out: Inhibition of Cell Growth IC50, W1L2 (B)
[7] = W1L2 suspension cells, read-out: Inhibition of Cell Growth IC50, W1L2 (B)
[8] = 0.25 mg/kg/d i.p. daily x 3 days
[9] = 0.50 mg/kg/d i.p. daily x 3 days
[10] = 0.75 mg/kg/d i.p. daily x 3 days
[11] = Homo sapiens, 72 h, read-out: Inhibition of Cell Growth IC50, W1L2:R865 (D), 72 h growth inhibition assay (Coulter counts)
[12] = 72 h growth inhibition assay (Coulter counts), read-out: Inhibition of Cell Growth IC50, W1L2:R865 (D)

| SMILES | IC50 (W1L2 cells; Homo sapiens) [nM] | IC50 (W1L2:C1 cells; Homo sapiens) [nM] | IC50 [1, 6] [nM] | Inhibition of L1210 TS (A) IRP* (inverse relative potency) [4] | IC50 [1, 7] | IC50 (W1L2:R865 cell line; [11]) [nM] | melting point [°C] | other results |
| --- | --- | --- | --- | --- | --- | --- | --- | --- |
| C#CCN(Cc1cc2c(=O)[nH]c(C)nc2cc1Br)c1ccc(C(=O)NCc2cccnc2)cc1 [CB30865, 4-[N-[7-bromo-2-methyl-4-oxo-3,4-dihydroquinazolin-6-ylmethyl]-N-(prop-2-ynyl)amino]-N-(3-pyridylmethyl)benzamide, reference compound] | 2.2 ± 0.82 | 2.3 ± 0.15 | 2.8 ± 0.5 |  |  |  |  | IC50 (W1L2:R865 cell line; Homo sapiens, 72 h growth inhibition assay (Coulter counts), read-out: Inhibition of Cell Growth IC50, W1L2:R865 (D)): 610 nM; IC50 ([1]; Homo sapiens, Lymphoblastoid cell, W1L2 cells, 72 h, read-out: 72 h IC50): 2.8 nM; water-solubility [2]: very low water-solubility |
| C#CCN(Cc1cc2c(=O)n(C)c(CN3CCN(C)CC3)nc2cc1Cl)c1ccc(C(=O)NCc2cccnc2)cc1 [CB300919, 4-[N-[7-Chloro-3-methyl-2-(4-methyl-piperazin-1-yl)methyl-4-oxo-3,4-dihydroquinazolin-6-ylmethyl]-N-(prop-2-ynyl)amino]-N-(3-pyridylmethyl)benzamide] | 0.32 |  |  | >2500 | 0.49 ± 0.24 nM |  |  | lower sensitivity of HT29 cells in vitro (HT29 cells): ~10 fold; optical density (% Treated/Control) ([3]; CH1 cells in the fibres, all doses given IP (0.25-0.75 mg/kg/day×3 days)): < 15%; O.D. as % control ([3]; CH1 ovarian, 0.25 mg/kg/d i.p. daily x 3 days): 13%; O.D. as % control ([3]; CH1 ovarian, 0.50 mg/kg/d i.p. daily x 3 days): 13%; O.D. as % control ([3]; CH1 ovarian, 0.75 mg/kg/d i.p. daily x 3 days): 13%; Dose to give 50% inhibition of tumour growth ([3]; CH1 ovarian, i.p. daily x 3 days): <0.25 mg/kg/day; IC50 (W1L2:R865 cell line; read-out: Inhibition of Cell Growth IC50, W1L2:R865 (D), 72 h growth inhibition assay (Coulter counts)): 13000 ± 4500 nM; IC50 (W1L2:C1 cells): 0.44 nM and 0.28 nM; MTD at 3 days (MTD in DBA2 mice): ~1.5 mg/kg/day; Weight loss (up to day 5) [5, 8]: No sig. wt. loss; Weight loss (up to day 5) [5, 9]: 0-19% wt. loss; Weight loss (up to day 5) [5, 10]: 9-22% wt. loss; Comments: mice killed ([5]; 0.75 mg/kg/d i.p. daily x 3 days, d4, 22% wt. loss): ⅓ killed (d4; 22% wt. loss; MTD at 3 days ([5]; nude, mouse, in vivo, intraperitoneal): 0.5 to 0.75 mg/kg/day; O.D. as % control (HT29 colon line; [8]): 92%; O.D. as % control (HT29 colon line; [9]): 34%; O.D. as % control (HT29 colon line; [10]): 29%; Dose to give 50% inhibition of tumour growth (HT29 colon line; i.p. daily x 3 days): 0.4 mg/kg/day |
| C#CCN(Cc1cc2c(=O)n(C)c(CN(CC)CC)nc2cc1Cl)c1ccc(C(=O)NCc2cccnc2)cc1 [CB300922, 4-[N-[2-Diethylaminomethyl-7-chloro-3-methyl-4-oxo-3,4-dihydroquinazolin-6-ylmethyl]-N-(prop-2-ynyl)amino]-N-(3-pyridylmethyl)benzamide] | 0.73 ± 0.05 | 0.42 | 0.71 ± 0.0076 | >2500 |  | > 50000 | 180 to 182 |  |
| C#CCN(Cc1cc2c(=O)n(C)c(CN3CCCCC3)nc2cc1Cl)c1ccc(C(=O)NCc2cccnc2)cc1 [CB300923, 4-[N-[7-Chloro-3-methyl-4-oxo-2-piperidinomethyl-3,4-dihydroquinazolin-6-ylmethyl]-N-(prop-2-ynyl)amino]-N-(3-pyridylmethyl)benzamide] | 0.78 |  | 0.8 | >4211 |  | 14000 | 148 to 150 |  |
| C#CCN(Cc1cc2c(=O)n(C)c(CN3CCCC3)nc2cc1Cl)c1ccc(C(=O)NCc2cccnc2)cc1 [CB300926, 4-[N-[7-Chloro-3-methyl-2-pyrrolidinomethyl-4-oxo-3,4-dihydroquinazolin-6-ylmethyl]-N-(prop-2-ynyl)amino]-N-(3-pyridylmethyl)benzamide] | 0.76 |  | 0.7 |  | 0.74 nM | 24000 |  |  |
| C#CCN(Cc1cc2c(=O)n(C)c(CN3CCN(CC)CC3)nc2cc1Cl)c1ccc(C(=O)NCc2cccnc2)cc1 [CB300927, 4-[N-[7-Chloro-3-methyl-2-(4-ethyl-piperazin-1-yl)methyl-4-oxo-3,4-dihydroquinazolin-6-ylmethyl]-N-(prop-2-ynyl)amino]-N-(3-yridylmethyl)benzamide] |  |  |  |  | 0.78 nM and 0.8 nM |  |  | IC50 (W1L2:R865 cell line; [12]): 22000 nM and 20000 nM; IC50 (W1L2 cells): 0.78 nM and 0.76 nM |
| C#CCN(Cc1cc2c(=O)n(C)c(CN3CCC[C@H]3C(=O)OC)nc2cc1Cl)c1ccc(C(=O)NCc2cccnc2)cc1 [CB300928, 4-[N-[7-Chloro-3-methyl-2-(methyl-L-prolin-1-yl)methyl-4-oxo-3,4-dihydroquinazolin-6-ylmethyl]-N-(prop-2-ynyl)amino]-N-(3-pyridylmethyl)benzamide] |  |  |  |  |  |  |  | IC50 (W1L2:R865 cell line; [12]): 24000 nM and 19000 nM; IC50 (W1L2 cells): 14 nM and 7.6 nM |
| C#CCN(Cc1cc2c(=O)n(C)c(CN3CCN(c4ccccc4)CC3)nc2cc1Cl)c1ccc(C(=O)NCc2cccnc2)cc1 [CB300934, 4-[N-[7-Chloro-3-methyl-4-oxo-2-(4-phenylpiperazin-1-yl)methyl-3,4-dihydroquinazolin-6-ylmethyl]-N-(prop-2-ynyl)amino]-N-(3-pyridylmethyl)benzamide] |  | 5.4 | 7.2 |  |  | 940 | 214 to 216 |  |
| C#CCN(Cc1cc2c(=O)n(CC(=O)N3CCCCC3)c(CN3CCCCC3)nc2cc1Cl)c1ccc(C(=O)NCc2cccnc2)cc1 [CB300938, 4-[N-[7-Chloro-4-oxo-2-(piperidin-1-yl)methyl-3-piperidinocarbonylmethyl-3,4-dihydroquinazolin-6-ylmethyl]-N-(prop-2-ynyl)amino]-N-(3-pyridylmethyl)benzamide] |  | 7.4 | 8.4 |  |  | > 50000 | 128 to 130 |  |
| C#CCN(Cc1cc2c(=O)n(CC(=O)N(CC)CC)c(CN3CCCCC3)nc2cc1Cl)c1ccc(C(=O)NCc2cccnc2)cc1 [CB300941, 4-[N-[7-Chloro-3-diethylcarbamoylmethyl-4-oxo-2-(piperidin-1-yl)methyl-3,4-dihydroquinazolin-6-ylmethyl]-N-(prop-2-ynyl)amino]-N-(3-pyridylmethyl)benzamide] |  | 8.4 | 9.4 |  |  | 19000 | > 105 |  |
